Laboratory results reported in PubChem BioAssay AID2060494 (Molecular Pharmacology Branch, DTP, NCI, 2025).

Test system: 435261-313-R-J1-PDC complex spheroid viability
Assay: Anticancer human tumor 435261-313-R-J1-PDC patient-derived colon adenocarcinoma cell line growth inhibition [GQUAD]
Conditions: for IC50: curve of first compound; for viability, T/C: stronger effect = lower value
Procedure, shortened: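 Tumor cells were grown as complex spheroids with HUVEC endothelial cells and mesenchymal stem cells as stroma. G-quadruplex stabilizers were combined with targeted agents over half-log dilutions from near the clinical Cmax, or from 10 microM.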

[1] = second compound 0.0316 µM, first compound 0.0316 µM
[2] = second compound 0.0316 µM, first compound 0.1 µM
[3] = second compound 0.0316 µM, first compound 0.316 µM
[4] = second compound 0.0316 µM, first compound 1 µM
[5] = second compound 0.0316 µM, first compound 3.16 µM
[6] = second compound 0.0316 µM, first compound 10 µM
[7] = second compound 0.1 µM, first compound 0.0316 µM
[8] = second compound 0.1 µM, first compound 0.1 µM
[9] = second compound 0.1 µM, first compound 0.316 µM
[10] = second compound 0.1 µM, first compound 1 µM
[11] = second compound 0.1 µM, first compound 3.16 µM
[12] = second compound 0.1 µM, first compound 10 µM
[13] = second compound 0.316 µM, first compound 0.0316 µM
[14] = second compound 0.316 µM, first compound 0.1 µM
[15] = second compound 0.316 µM, first compound 0.316 µM
[16] = second compound 0.316 µM, first compound 1 µM
[17] = second compound 0.316 µM, first compound 3.16 µM
[18] = second compound 0.316 µM, first compound 10 µM
[19] = second compound 1 µM, first compound 0.0316 µM
[20] = second compound 1 µM, first compound 0.1 µM
[21] = second compound 1 µM, first compound 0.316 µM
[22] = second compound 1 µM, first compound 1 µM
[23] = second compound 1 µM, first compound 3.16 µM
[24] = second compound 1 µM, first compound 10 µM
[25] = second compound 3.16 µM, first compound 0.0316 µM
[26] = second compound 3.16 µM, first compound 0.1 µM
[27] = second compound 3.16 µM, first compound 0.316 µM
[28] = second compound 3.16 µM, first compound 1 µM
[29] = second compound 3.16 µM, first compound 3.16 µM
[30] = second compound 3.16 µM, first compound 10 µM
[31] = second compound 10 µM, first compound 0.0316 µM
[32] = second compound 10 µM, first compound 0.1 µM
[33] = second compound 10 µM, first compound 0.316 µM
[34] = second compound 10 µM, first compound 1 µM
[35] = second compound 10 µM, first compound 3.16 µM
[36] = second compound 10 µM, first compound 10 µM
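Further: spheroids exposed to the agents for seven days before readout.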
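Wherever viability, T/C is given: percent of vehicle control viability with DMSO wells as 100%.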

In the case of `C#Cc1c(F)ccc2cc(O)cc(-c3ncc4c(N5CC6CCC(C5)N6)nc(OCC56CCCN5CC(F)C6)nc4c3F)c12` (stereo not drawn) + Cc1cnc(CNC(=O)c2c(=O)c3ccc(N4CCCN(C)CC4)nc3n3c2sc2ccccc23)cn1, the IC50 (second compound 0.0316 µM) is reported as 1840 nM, the IC50 (second compound 0.1 µM) is reported as 341 nM and the IC50 (second compound 0.316 µM) is reported as 448 nM. For the same compound, the IC50 (second compound 1 µM) was < 31.6 nM, the IC50 (second compound 3.16 µM) was < 31.6 nM and the IC50 (second compound 10 µM) was < 31.6 nM. For the same compound, the viability, T/C [1] was 74.5%, the viability, T/C [2] was 61% and the viability, T/C [3] was 71.5%. The viability, T/C [4] was 50.5%, the viability, T/C [5] was 45.9% and the viability, T/C [6] was 34.7%. It also gave a viability, T/C [7] of 59.5%, a viability, T/C [8] of 62.2% and a viability, T/C [9] of 49.8%. The viability, T/C [10] was 36.6%, the viability, T/C [11] was 43.1% and the viability, T/C [12] was 29.6%. The viability, T/C [13] was 53%, the viability, T/C [14] was 59.6% and the viability, T/C [15] was 55.4%. The viability, T/C [16] was 37.8%, the viability, T/C [17] was 34.8% and the viability, T/C [18] was 30.5%. For the same compound, the viability, T/C [19] was 37.4%, the viability, T/C [20] was 34.4% and the viability, T/C [21] was 34.1%. It also gave a viability, T/C [22] of 34.3%, a viability, T/C [23] of 30% and a viability, T/C [24] of 17.1%. It also gave a viability, T/C [25] of 0.16%, a viability, T/C [26] of 6.4% and a viability, T/C [27] of 0.17%. For the same compound, the viability, T/C [28] was 6.39%, the viability, T/C [29] was 0.17% and the viability, T/C [30] was 0.15%. It also gave a viability, T/C [31] of 0.12%, a viability, T/C [32] of 0.14% and a viability, T/C [33] of 0.16%. It also gave a viability, T/C [34] of 0.16%, a viability, T/C [35] of 0.22% and a viability, T/C [36] of 0.18%.
For `COc1ncnc(C2CC2)c1-c1ncc2cnn(Cc3ccc(-c4nc(C(F)(F)F)cn4C(C)C)cc3)c2n1` + Cc1cnc(CNC(=O)c2c(=O)c3ccc(N4CCCN(C)CC4)nc3n3c2sc2ccccc23)cn1, the IC50 (second compound 0.0316 µM) was > 10000 nM, the IC50 (second compound 0.1 µM) was > 10000 nM and the IC50 (second compound 0.316 µM) was < 31.6 nM. The IC50 (second compound 1 µM) was < 31.6 nM, the IC50 (second compound 3.16 µM) was < 31.6 nM and the IC50 (second compound 10 µM) was < 31.6 nM. It also gave a viability, T/C [1] of 63.8%, a viability, T/C [2] of 55.6% and a viability, T/C [3] of 61.9%. It also gave a viability, T/C [4] of 55.2%, a viability, T/C [5] of 65.9% and a viability, T/C [6] of 55.6%. The viability, T/C [7] was 65.5%, the viability, T/C [8] was 59.7% and the viability, T/C [9] was 51.1%. It also gave a viability, T/C [10] of 53.5%, a viability, T/C [11] of 61.9% and a viability, T/C [12] of 53.8%. It also gave a viability, T/C [13] of 48.4%, a viability, T/C [14] of 53.7% and a viability, T/C [15] of 52.4%. The viability, T/C [16] was 48.5%, the viability, T/C [17] was 55.1% and the viability, T/C [18] was 54.3%. The viability, T/C [19] was 32.6%, the viability, T/C [20] was 40.8% and the viability, T/C [21] was 40.7%. The viability, T/C [22] was 31.8%, the viability, T/C [23] was 42.1% and the viability, T/C [24] was 37.2%. It also gave a viability, T/C [25] of 17.9%, a viability, T/C [26] of 10.5% and a viability, T/C [27] of 17.6%. It also gave a viability, T/C [28] of 8.94%, a viability, T/C [29] of 15.1% and a viability, T/C [30] of 17.2%. It also gave a viability, T/C [31] of 0.18%, a viability, T/C [32] of 0.17% and a viability, T/C [33] of 0.23%. The viability, T/C [34] was 0.19%, the viability, T/C [35] was 0.2% and the viability, T/C [36] was 0.18%.
With `Nc1ccn(C2OC(CO)C(O)C2(F)F)c(=O)n1` (stereo not drawn) + Cc1cnc(CNC(=O)c2c(=O)c3ccc(N4CCCN(C)CC4)nc3n3c2sc2ccccc23)cn1 the IC50 (second compound 0.0316 µM) was > 10000 nM, the IC50 (second compound 0.1 µM) was > 10000 nM and the IC50 (second compound 0.316 µM) was 4260 nM. The IC50 (second compound 1 µM) was < 31.6 nM, the IC50 (second compound 3.16 µM) was < 31.6 nM and the IC50 (second compound 10 µM) was < 31.6 nM. It also gave a viability, T/C [1] of 85.8%, a viability, T/C [2] of 63.4% and a viability, T/C [3] of 64.2%. For the same compound, the viability, T/C [4] was 59.8%, the viability, T/C [5] was 73.4% and the viability, T/C [6] was 59.3%. It also gave a viability, T/C [7] of 62.5%, a viability, T/C [8] of 67.5% and a viability, T/C [9] of 58.2%. It also gave a viability, T/C [10] of 79.8%, a viability, T/C [11] of 61.6% and a viability, T/C [12] of 59.9%. The viability, T/C [13] was 64.5%, the viability, T/C [14] was 59.7% and the viability, T/C [15] was 56.3%. It also gave a viability, T/C [16] of 56.7%, a viability, T/C [17] of 54.4% and a viability, T/C [18] of 43.6%. For the same compound, the viability, T/C [19] was 51.5%, the viability, T/C [20] was 46.9% and the viability, T/C [21] was 47.8%. For the same compound, the viability, T/C [22] was 52.1%, the viability, T/C [23] was 47% and the viability, T/C [24] was 28%. The viability, T/C [25] was 23.3%, the viability, T/C [26] was 26.2% and the viability, T/C [27] was 21.9%. For the same compound, the viability, T/C [28] was 6.98%, the viability, T/C [29] was 14% and the viability, T/C [30] was 0.27%. The viability, T/C [31] was 0.21%, the viability, T/C [32] was 0.2% and the viability, T/C [33] was 0.17%. It also gave a viability, T/C [34] of 0.31%, a viability, T/C [35] of 0.2% and a viability, T/C [36] of 0.21%.
`O=c1[nH]cc(F)c(=O)[nH]1` + Cc1cnc(CNC(=O)c2c(=O)c3ccc(N4CCCN(C)CC4)nc3n3c2sc2ccccc23)cn1 was tested, and the IC50 (second compound 0.0316 µM) was > 10000 nM, the IC50 (second compound 0.1 µM) was > 10000 nM and the IC50 (second compound 0.316 µM) was > 10000 nM. The IC50 (second compound 1 µM) was < 31.6 nM, the IC50 (second compound 3.16 µM) was < 31.6 nM and the IC50 (second compound 10 µM) was < 31.6 nM. It also gave a viability, T/C [1] of 85.2%, a viability, T/C [2] of 68.1% and a viability, T/C [3] of 76.1%. It also gave a viability, T/C [4] of 67.4%, a viability, T/C [5] of 81.4% and a viability, T/C [6] of 86.7%. For the same compound, the viability, T/C [7] was 68.8%, the viability, T/C [8] was 64% and the viability, T/C [9] was 56.1%. The viability, T/C [10] was 65.7%, the viability, T/C [11] was 81.9% and the viability, T/C [12] was 61.1%. It also gave a viability, T/C [13] of 57.3%, a viability, T/C [14] of 59.5% and a viability, T/C [15] of 56.7%. It also gave a viability, T/C [16] of 56%, a viability, T/C [17] of 67% and a viability, T/C [18] of 60.6%. The viability, T/C [19] was 41.5%, the viability, T/C [20] was 45.9% and the viability, T/C [21] was 47.6%. The viability, T/C [22] was 47%, the viability, T/C [23] was 55.1% and the viability, T/C [24] was 40.2%. It also gave a viability, T/C [25] of 20.3%, a viability, T/C [26] of 19.4% and a viability, T/C [27] of 17.6%. For the same compound, the viability, T/C [28] was 24.2%, the viability, T/C [29] was 18.9% and the viability, T/C [30] was 23.6%. The viability, T/C [31] was 0.16%, the viability, T/C [32] was 0.18% and the viability, T/C [33] was 0.23%. The viability, T/C [34] was 0.21%, the viability, T/C [35] was 0.23% and the viability, T/C [36] was 0.21%.
